Source: patent US20240299401A1, “NOVEL REDOX-BASED THERAPEUTIC APPROACH FOR TREATMENT OF CANCER” (THE PENN STATE RESEARCH FOUNDATION, priority 2020, published 2024)
Where two headings read alike, the source gives them in different places.

What was measured:
[1] = system: extracellular reduced thiols; assay: Extracellular thiols measurement (DTDP method); type: cell-based, human; settings: for thiols efflux: A549 and H1299, 24 h, Erastin 5 μM, MSG 50 mM, Sorafenib 2.5 μM, trans-2,4-PDC 100 μM
Experimental: Cell culture media was collected at specified time points after incubation with the respective compounds as described in the respective figure legends and extracellular total thiols were measured using the DTDP method 19. The protocol was adjusted to 96-well plate format. […] Absorbance was measured at 324 nm in a spectrophotometer (PowerWave HT, BioTek, VT, USA). The assay mixture with fresh media was used as a blank.

H661 = assay: WST-1 cytotoxicity, H661; type: cell-based, human; settings: Homo sapiens, NCI-H661, 24 h
Experimental: (§1) Two different cytotoxicity/proliferation kit was used in this study i.e., WST-1 proliferation assay kit (Roche, Indianapolis, IN, USA; Cat #28620000) and Cell-titer Glo-luminescent cell viability assay (Promega, WI, USA; Cat #0000348721). Majority of the cell proliferation/cytotoxicity experiments were performed with WST-1 assay. Briefly, cells were seeded at the indicated density for 24 h in 96 well plate, media was replaced, and subsequently treated with the test compounds at different doses. […] Cell titer Glo-assay was additionally performed in certain cases to validate the results from WST-1 assay as outlined above following manufacturer's instructions and luminescence was measured using a FLx100 Luminometer (CLARIOSTAR®, Ortenbery, Germany). […] Other proliferation/cytotoxicity assays were also carried out i.e., Quant™-iT PicoGreen ds DNA assay kit (Thermo Scientific, Rockwood, TN, USA, P7589) following manufacturer's instructions, Trypan blue (Sigma, Ayrshire, UK, T8154) and acid phosphatase assay for validation of cytotoxicity/proliferation data from other assays.

NB4 = assay: WST-1 cytotoxicity, NB4; type: cell-based, human; settings: Homo sapiens, NB-4
Experimental: as §1

HL60 = assay: WST-1 cytotoxicity and synergy analysis, HL60; type: cell-based, human; settings: Homo sapiens, HL-60
Experimental: as §1

A549 = assay: WST-1 cytotoxicity, A549; type: cell-based, human; settings: Homo sapiens
Experimental: as §1

ATF4 = settings: HEK293 ATF4 reporter; tunicamycin 2.5 μM, other compounds 5.0 μM; 24 h
Experimental: The next day, media was replaced with respective compounds as described. Twenty-four hours post-treatment, media were aspirated and replaced with 1:1 ratio of PBS:Bright Glo luciferase reagent mix (Promega, Madison, WI, USA) according to manufacturer's protocol. Cells were incubated in the dark for 10 min at room temperature with gentle rocking and luciferase activity was measured using an FLx100 Luminometer (CLARIOSTAR®, Ortenbery, Germany). In parallel, the same setup was made, and the cells were used to monitor the proliferation/toxicity of individual exposed compounds. Luciferase signal is normalized to the to the proliferation/toxicity of the individual compounds. Bortezomib (50 nM, Sigma-Aldrich, St. Louis, MO, USA), a known agonist for ATF4, was used as a positive control.
The next day, old media was replaced with media containing the respective compounds as described in the figure legends. […] Cells were incubated in the dark for 10 min at room temperature with gentle rocking and luciferase activity was measured using an FLx100 Luminometer (CLARIOSTAR®, Ortenbery, Germany). […] In parallel, the same setup was made, and the cells were used to monitor the proliferation/toxicity of individual compounds. Luciferase signal was normalized to correct for the proliferation/toxicity of the individual compounds. […] For ATF4 reporter assay, Hek293T reporter cells 20 were cultured similarly as indicated for MCF7 cells, except for seeding density was set at 300 cells/mm2. All other experimental set up was similar.

OV2008 = assay: WST-1 cytotoxicity, OV2008; type: cell-based; settings: Homo sapiens; OV2008; alone; 24 h; read-out: Calculated IC50 values
Experimental: as §1

[2] = orally, 50-200 mg/day for 49 days; human; cited from earlier work
Hep3B = assay: WST-1 cytotoxicity, Hep3B; type: cell-based; settings: Homo sapiens, alone, 24 h, read-out: Calculated IC50 values
Experimental: as §1

U1906L = assay: WST-1 cytotoxicity, U1906L; type: cell-based; settings: Homo sapiens; U1906L; alone; 24 h; read-out: Calculated IC50 values
Experimental: as §1

8-MGBA = assay: WST-1 cytotoxicity, 8-MGBA; type: cell-based; settings: Homo sapiens, 8-MG-BA; 8-MGBA; alone; 24 h; read-out: Calculated IC50 values
Experimental: as §1

SHSY5-SY = assay: WST-1 cytotoxicity, SHSY5-SY; type: cell-based; settings: Homo sapiens; SHSY5-SY; alone; 24 h; read-out: Calculated IC50 values
Experimental: as §1

HeLa = assay: WST-1 cytotoxicity, HeLa; type: cell-based; settings: Homo sapiens, alone, 24 h, read-out: Calculated IC50 values
Experimental: as §1

LS174T = assay: WST-1 cytotoxicity, LS174T; type: cell-based; settings: Homo sapiens, alone, 24 h, read-out: Calculated IC50 values
Experimental: as §1

THP-1 = assay: WST-1 cytotoxicity, THP-1; type: cell-based; settings: Homo sapiens; THP-1; alone; 24 h; read-out: Calculated IC50 values
Experimental: as §1

IGROV1 = assay: WST-1 cytotoxicity, IGROV1; type: cell-based, human; settings: IGROV1; alone; 24 h; dose up to 200 μM
Experimental: as §1

HUH7 = assay: WST-1 cytotoxicity, HUH7; type: cell-based; settings: Homo sapiens, Huh-7; HUH7; alone; 24 h; read-out: Calculated IC50 values
Experimental: as §1

[3] = system: Primary Human hepatocytes; assay: WST-1 cytotoxicity, primary human hepatocytes; settings: Hepatocyte, 24 h, read-out: Calculated IC50 values
PANC-1 = assay: WST-1 cytotoxicity, PANC-1; type: cell-based; settings: Homo sapiens; PANC-1; alone; 24 h; read-out: Calculated IC50 values
Experimental: as §1

[4] = Toxicity in black mice (C57BL/6), 3 weeks; type: in vivo; settings: sodium selenite or selenocystine 3 mg/kg, alone or with diphenyl diselenide 50 and 100 mg/kg
Experimental: Black mice (C57BJ/6) mice were treated perorally every second day with either vehicle (canola oil) or diphenyl diselenide at two different dose levels (50 and 100 mg/kg body weight) for 3 weeks. Final body weight and weight of the major organs were measured at necropsy.
Black mice (C57BJ/6) mice were treated with vehicle (PBS i.p. and canola oil p.o.), sodium selenite (3 mg/kg body weight), selenocystine (3 mg/kg body weight), or in combinations with two different doses of diphenyl diselenide (50 and 100 mg/kg body weight) for 3 weeks. Final body weight and weight of the major organs were measured at necropsy.

HepG2 = assay: WST-1 cytotoxicity, HepG2; type: cell-based; settings: Homo sapiens; HepG2; alone; 24 h; read-out: Calculated IC50 values
A375 = assay: WST-1 cytotoxicity, A375; type: cell-based; settings: Homo sapiens, A-375; A375; alone; 24 h; read-out: Calculated IC50 values
Experimental: as §1

[5] = system: Primary peripheral blood mononuclear cells; assay: WST-1 cytotoxicity, primary PBMCs; settings: Homo sapiens, PBMC, 24 h, read-out: Calculated IC50 values
MCF-7 = assay: WST-1 cytotoxicity, MCF-7; type: cell-based, human; settings: Homo sapiens, MCF7, MCF-7, alone
Experimental: as §1

U1906E = assay: WST-1 cytotoxicity, U1906E; type: cell-based; settings: Homo sapiens; U1906E; alone; 24 h; read-out: Calculated IC50 values
Experimental: as §1

H1299 = assay: WST-1 cytotoxicity, H1299; type: cell-based, human; settings: Homo sapiens, NCI-H1299, H1299, alone
Experimental: as §1

SNB-19 = assay: WST-1 cytotoxicity, SNB-19; type: cell-based; settings: Homo sapiens; SNB-19; alone; 24 h; read-out: Calculated IC50 values
Experimental: as §1

AML193 = assay: WST-1 cytotoxicity, AML193; type: cell-based; settings: Homo sapiens; AML193; alone; 24 h; read-out: Calculated IC50 values
Experimental: as §1

[6] = Reported oral administration of selenocystine in humans; type: in vivo, human; settings: assuming 15% of 100 mg daily dose bioavailable, blood volume 5 L
[7] = 24 h, read-out: Calculated IC50 values
[8] = read-out: Calculated IC50 values of selenocystine

With `N[C@@H](CCC(=O)O)C(=O)[O-].[Na+]` [mono-sodium glutamate] the thiols efflux [1] was “inhibited thiols efflux”.
In the case of `C[S+]([O-])CCCCN=C=S` (centres unmarked) [Sulforaphen, reference compound], the IC50 (H661; H661 (Lung), compound alone, '>' = dose approximation, read-out: IC50 values) is reported as over 10 µM, the IC50 (NB4; NB4 (Leukemia), compound alone, 24 h, '>' = dose approximation, read-out: IC50 values) is reported as over 20 µM and the “extracellular reduced thiols levels” value ([1]; MCF7 cells) is reported as “induced”. The IC50 (HL60; HL60 (Leukemia), compound alone, 24 h, '>' = dose approximation, read-out: IC50 values) was over 20 µM, the IC50 (A549; A549 (Lung), compound alone, 24 h, '>' = dose approximation, read-out: IC50 values) was over 10 µM and the ATF4 activity (ATF4) was “not effective”.
For `N[C@@H](C[Se][Se]C[C@H](N)C(=O)O)C(=O)O` [Selenocystine, selenocystine], the IC50 (OV2008) is given as 6.98 µM, the drug-induced toxic effects [2] is given as “no signs of drug-induced toxic effects were reported” and the IC50 (Hep3B) is given as 74.7 µM. For the same molecule, the IC50 (U1906L) was 17.8 µM, the IC50 (H661; H661, alone, read-out: Calculated IC50 values) was 55.7 µM and the IC50 (8-MGBA) was 49.7 µM. The IC50 (SHSY5-SY) was 115 µM, the IC50 (HeLa) was 5.78 µM and the IC50 (LS174T) was 3.88 µM. For the same molecule, the IC50 (THP-1) was 0.92 µM, the “Calculated IC50 values” (IGROV1) was “Non-toxic*” and the IC50 (NB4; NB4, alone, 24 h, read-out: Calculated IC50 values) was 44.1 µM. It also gave an IC50 (NB4; NB4, alone, read-out: Calculated IC50 values of selenocystine) of 44.1 µM, an IC50 (HUH7) of 92.7 µM and an IC50 [3] of 300 µM. For the same molecule, the IC50 (HL60; HL60, alone, 24 h, read-out: Calculated IC50 values) was 22.6 µM, the IC50 (HL60; HL60, alone, read-out: Calculated IC50 values of selenocystine) was 22.6 µM and the IC50 (PANC-1) was 18.5 µM. For the same molecule, the “toxic effects (body and organ weight at necropsy)” value [4] was “No demonstrated toxic effects could be observed”, the IC50 (HepG2) was 12.4 µM and the IC50 (A375) was 8.6 µM. The IC50 [5] was 35.4 µM, the IC50 (A549; A549, alone, 24 h, read-out: Calculated IC50 values) was 8.7 µM and the IC50 (A549; A549, alone, read-out: Calculated IC50 values of selenocystine) was 8.7 µM. It also gave an IC50 (MCF-7; [7]) of 34.9 µM, an IC50 (MCF-7; [8]) of 34.9 µM and an IC50 (U1906E) of 2.18 µM. For the same molecule, the IC50 (H1299; [7]) was 22.7 µM, the IC50 (H1299; [8]) was 22.7 µM and the IC50 (SNB-19) was 78.7 µM. The IC50 (AML193) was 47 µM and the “maximum plasma concentration (conservative estimation)” value [6] was 17.8 µM.
For `CCCCS(=N)(=O)CCC(N)C(=O)O` (centres unmarked) [BSO], the “impact on the DPDS-induced increase in thiols efflux” value ([1]; MCF7, co-exposure, time-course) was “little or no impact”.
In the case of `CNC(=O)c1cc(Oc2ccc(NC(=O)Nc3ccc(Cl)c(C(F)(F)F)c3)cc2)ccn1` [sorafenib], the thiols efflux [1] is reported as “no effect”.
With `c1ccc(C[Se][Se]Cc2ccccc2)cc1` [DBDS, dibenzyl diselenide] the extracellular reduced thiols ([1]; HEK293 ATF4 reporter cells, 5.0 μM) was “increased levels of extracellular reduced thiols” and the extracellular reduced thiols ([1]; all the tested cell lines, H1299 and HL60) was “highly effective”.
In the case of `O=C(O)[C@H]1CN[C@H](C(=O)O)C1` (relative stereo) [trans-2,4-PDC], the thiols efflux [1] is reported as “no effect”.
